From paper PMC6452685, “Lysyl-tRNA synthetase as a drug target in malaria and cryptosporidiosis” (Proceedings of the National Academy of Sciences of the …, 2019) come the findings set out here.

In one data set the target is T1, CYP2D6 (Homo sapiens, UniProt P10635).
T1 construct: purchased Cypex, Dundee, UK; host or cells: bacterial membranes (bactosomes)
As to the kind of experiment: Fluorescence-based CYP inhibition, CYP2D6. The format is in vitro ADME. How it is done:
(§1) 4.7 F lu or e s ce nce-based CYP I nhibition usin g recombinantly expressed CYP b actosomes Fl uorogeni c C YP i nhi bi t i on s t udi es w ere c ondu ct ed at 37 °C i n 96-well, flat-bot t om, cl ear p ol y s t y rene pl at es. I ncubat i on mi xt ures cont ai ni ng Eas y C YP bact os omes (1000 pmol /ml , 10 mg /ml C y pex TM, Dundee, UK), fl uorogeni c substrate (Cypex TM) and 50 mM potas s i um phosphat e buffer (p H 7. 4) w er e prepared at t he fol l ow i ng fi nal concent rat i ons : C YP1A2, 5 pmol /ml + 35 µ M et hox y res orufi n (ER) ; CYP2C9, 10 pm ol/ml + 30 µM 7-methoxy-4-(tri fl uo romethy l )-coumari n (MFC ); C YP 2C 19, 5 pm ol /ml + 25 µM 3-cy ano-7-eth oxycoumarin (CEC); C YP 2D 6, 10 pmol /ml + 6 µM 7-meth oxy-4-(ami nomethy l )- coumari n (MAMC ); C YP 3A4, 10 pmol /ml + 1 µM diethoxyfluorescein (DEF) and 10 pmol /ml + 15 µM 7-benz y l ox y qui nol i ne (BQ ). […] 0125 ( 1A2 and 2C 9 onl y ) o r 0. 025 mg /ml (al l ot her i s oforms ). […] Positive control inhibitor, miconazole, was prepared as a 500 µM s olution in DMSO and similarly diluted.
(§2) For eac h i sofo rm, 2 20 µl of i ncubati on mi x was added to each wel l of a 96-well, flat-bot t om, cl ear pol y s t y rene pl at e. Al i quot s (5 µl) of each compound 5 conce ntrati on was then mi x ed wi th 220 µl of the incubation mix and pre-incubated at 37 °C for 5 min (final test compound concentration range: […]

Another data set deals with T2, CYP2C19 (Homo sapiens, UniProt P33261).
T2 construct: purchased Cypex, Dundee, UK; host or cells: bacterial membranes (bactosomes)
T2 sequence (P33261 whole entry): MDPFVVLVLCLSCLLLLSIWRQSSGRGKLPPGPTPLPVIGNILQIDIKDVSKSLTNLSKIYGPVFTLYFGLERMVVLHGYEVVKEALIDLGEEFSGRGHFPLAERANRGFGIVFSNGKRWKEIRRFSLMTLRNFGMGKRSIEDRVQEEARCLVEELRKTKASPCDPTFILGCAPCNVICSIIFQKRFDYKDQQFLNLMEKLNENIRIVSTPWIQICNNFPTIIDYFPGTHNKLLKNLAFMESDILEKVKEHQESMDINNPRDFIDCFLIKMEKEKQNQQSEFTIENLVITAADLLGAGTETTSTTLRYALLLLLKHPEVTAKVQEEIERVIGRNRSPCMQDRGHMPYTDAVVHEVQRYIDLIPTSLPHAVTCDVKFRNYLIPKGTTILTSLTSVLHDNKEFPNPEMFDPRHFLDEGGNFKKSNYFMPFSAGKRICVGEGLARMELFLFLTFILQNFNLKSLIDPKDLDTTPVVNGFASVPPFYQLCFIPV
Put plainly: Fluorescence-based CYP inhibition, CYP2C19. The format is in vitro ADME. As for the experimental part:
as §1, §2

Data set [1] in a line: In vivo pharmacokinetics in mouse. An excerpt: 5. In vi vo pharmacokinetic and efficacy studies
5.1 In viv o ph armacokinetics (Dundee)
The l ev el of each comp ound i n mouse bl ood was determi ned by UPLC -MS/MS as previously re port e d (18). Pharmacokinetic parameters were derived from the blood c oncent ration time curve usi ng PKsol uti ons software v 2.0 (Summi t Research Servi ces, USA). […]

A further data set addresses PfKRS1 (Plasmodium falciparum, UniProt Q8IDJ8). Put plainly: PfKRS1 hit discovery high-throughput screen (Kinase-Glo). Type of data set: biochemical. The arrangement: recombinant PfKRS1 (77–583 and 80–583); 6xHis (N); made in house; host or cells: E. coli Rosetta BL21(DE3), vector pAVA0421. To be noted: single point 7.5 µM. How it is done:
By using the luciferase ATP consumption (Kinase-Glo) assay platform with sub-Km substrate concentrations (thus biasing the assay toward identifying ATP-competitive inhibitors), the GlaxoSmithKline malaria actives set of ∼13,000 compounds (the Tres Cantos Antimalarial Set) ([19]) was screened against recombinant PfKRS1, leading to the discovery of a PfKRS1 inhibitor, compound 2 (Fig. 1). […] Compound 2 suffered from high metabolic instability (CLi > 50 mL⋅min^−1⋅g^−1 in mouse liver microsomes); however, in contrast to cladosporin 1, it was chemically tractable. […]
Assays were performed in 384-well format i n buffer (as des cri bed i n Tabl e S3), 60 µM lysine, and 75 nM PfKRS1. Compounds were initially screened at single point concentrations of 7.5 µM and hits were re peated three times. Plates were incubated for 180 mi ns at 37°C after a ddition of compounds. Reactions were terminated by the addi ti on of Ki nase-Glo® reagent and read on an E nVi si on pl ate reader (Perki nEl mer, W al tham, MA). […]
Us i ng the EnzChek as s ay pl atform the I C50 value for compound 5 was determined at saturating concentrati ons of both s ubs trates , 0. […] Assay ready plates containing different concent rations of compound 5 were prepa red usi ng an Ec ho® 5 50 acousti c di spenser (Labcyte Inc.). […]
Background: Kinase-Glo measures the ATP left after a reaction by luminescence.

T1 sequence (P10635 whole entry): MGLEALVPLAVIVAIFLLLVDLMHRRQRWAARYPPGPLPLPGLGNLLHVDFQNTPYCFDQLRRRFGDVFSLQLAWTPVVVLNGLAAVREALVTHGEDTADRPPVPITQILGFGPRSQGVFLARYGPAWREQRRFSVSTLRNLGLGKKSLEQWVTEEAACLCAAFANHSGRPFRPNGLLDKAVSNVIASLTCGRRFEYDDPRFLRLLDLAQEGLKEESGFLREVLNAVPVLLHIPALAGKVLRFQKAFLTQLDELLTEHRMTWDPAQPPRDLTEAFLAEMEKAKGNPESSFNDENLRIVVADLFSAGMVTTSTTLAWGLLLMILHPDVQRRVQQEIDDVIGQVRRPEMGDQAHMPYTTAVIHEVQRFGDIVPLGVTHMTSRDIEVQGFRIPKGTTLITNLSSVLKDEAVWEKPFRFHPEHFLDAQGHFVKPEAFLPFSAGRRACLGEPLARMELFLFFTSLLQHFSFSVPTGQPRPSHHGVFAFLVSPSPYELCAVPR
PfKRS1, sequence (Q8IDJ8 77-583): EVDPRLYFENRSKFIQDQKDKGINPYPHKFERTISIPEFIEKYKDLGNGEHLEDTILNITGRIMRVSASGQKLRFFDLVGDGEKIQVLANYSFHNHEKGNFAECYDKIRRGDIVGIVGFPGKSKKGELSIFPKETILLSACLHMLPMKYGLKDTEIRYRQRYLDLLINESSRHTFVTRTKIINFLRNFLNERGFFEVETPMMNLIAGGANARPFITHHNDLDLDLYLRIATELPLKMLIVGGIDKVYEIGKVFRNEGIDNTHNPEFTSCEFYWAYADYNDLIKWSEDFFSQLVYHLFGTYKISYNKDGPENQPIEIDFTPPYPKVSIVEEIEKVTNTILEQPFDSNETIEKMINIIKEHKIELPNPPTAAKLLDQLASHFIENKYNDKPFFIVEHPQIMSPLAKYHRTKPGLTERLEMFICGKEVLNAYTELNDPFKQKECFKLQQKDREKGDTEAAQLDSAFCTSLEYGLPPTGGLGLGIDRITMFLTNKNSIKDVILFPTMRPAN

In the case of `O=C(NCC1(O)CCC(F)(F)CC1)c1cc(=O)c2cc(F)ccc2o1` [Compound 5], the IC50 against CYP2D6 and against CYP2C19 was greater than 10 µM each time. In addition, the “compound present in mouse stools” value in data set [1] (after oral dosing) is 17 % of oral dose. For the same molecule, the AUC(0-t) in data set [1] (female, BALB/c, whole blood, po, orally, 10 mg/kg, read-out: Mouse PK orally AUC0–1440) fell in the range of 21700 to 50000 ng·h/mL. Further, the Cmax in data set [1] (female, BALB/c, whole blood, po, orally, 10 mg/kg, read-out: Mouse PK orally Cmax) is 5400 ng/mL. Besides, the bioavailability in data set [1] (female, BALB/c, whole blood, po, orally, 10 mg/kg, read-out: Mouse PK orally F% (oral bioavailability)) stood at 100%. Besides, the Tmax in data set [1] (female, BALB/c, whole blood, po, orally, 10 mg/kg, read-out: Mouse PK orally Tmax) was 2 h. Further, the AUC in data set [1] (female, Balb/c, whole blood, iv, intravenously, 3 mg/kg, read-out: Mouse PK intravenously AUC (converted)) was 14800 ng·h/mL. Also, the half-life in data set [1] (female, Balb/c, whole blood, iv, intravenously, 3 mg/kg, read-out: Mouse PK intravenously T1/2 (converted)) is 150 min. Also, the Vd in data set [1] (female, Balb/c, whole blood, iv, intravenously, 3 mg/kg, read-out: Mouse PK intravenously Vdss) was 1 L/kg. Also, in data set [1] (intravenously, 3 mg/kg), the “Mouse PK intravenously Clb” value was determined as 3.4 mL⋅min^−1⋅kg^−1. Further, the “Mouse PK orally F% (oral bioavailability)” value in data set [1] (orally, 10 mg/kg) is recorded as “completely bioavailable”.

Consider `O=C(NCC1CCCCC1)c1cc(=O)c2ccccc2o1` [Compound 2], for which, on PfKRS1, the “inhibition of PfKRS1 in high-throughput screen” value is recorded as 71-91%.

A word on the IC50: it is the point on the concentration scale where inhibition reaches its midpoint. High values mean a need for much substance, low ones inhibition by little substance. By Cmax is commonly meant the maximum level reached in the sampled fluid or tissue. One may read the bioavailability as dose-corrected exposure relative to a reference, in per cent. The term Tmax denotes the time at which the peak concentration occurs. One may read the AUC as the area under the concentration-time curve, a measure of exposure.
